Reference: patent US7923230B2, “Neurodegenerative protein aggregation inhibition methods and compounds” (The Board of Trustees of the Leland Stanford Junior …, priority 2003, dated 2011)

Legend:
FKBP12 = target: T1, FKBP12 (Homo sapiens, UniProt P62942); test: Surface plasmon resonance, binding to immobilized FKBP12; details: SPR
T1 construct: made in house
Procedure: (§1) Surface Plasmon Resonance. Amide coupling was used to generate a carboxymethyldextran (CMS; BIAcore, Uppsala, Sweden) sensor chip bearing a mockimmobilized surface on flow chamber 1 (Fc1), 950 RU of Aβ(1-40) (SEQ ID NO: 3) (AnaSpec, San Jose, Calif.) on Fc2, and 2800 RU of bacterially-expressed recombinant FKBP12 on Fc3. The regeneration conditions were as follows: for removing analyte from Aβ surfaces (4 M guanidine HCl, 10 mM Tris buffer pH 8.0) and for removing analyte from the FKBP surface (750 mM NaCl, 250 mM NaOH). To calculate KD1 and KD2 (±SEM) for Aβ binding (in part C), the control signal was subtracted and data was fit according to the method of Cairo et al. (Biochemistry 41, 8620-8629 (2002). In each case, eight concentrations of analyte distributed around the KD were injected in duplicate in the running buffer (HBS-EP; BIAcore). Congo red is not uniquely specific for Aβ and, consistent with this, it also binds FKBP, but at a KD 20-fold higher than SLF-CR.

Aβ(1-42) [1] = target: T2, Aβ(1-42) (Homo sapiens, UniProt P05067); test: Light scattering (turbidity) of Aβ(1-42) fibrillogenesis; assay type: biochemical
T2 construct: purchased AnaSpec, San Jose, Calif; host or cells: synthetic peptide
T2 sequence (P05067 672-713): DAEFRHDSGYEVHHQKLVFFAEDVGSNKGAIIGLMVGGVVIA
Procedure: Light Scattering. Fresh A13(1-42) (Anaspec, San Jose, Calif.) (SEQ ID NO: 2) was prepared by resuspending the peptide in […] pH 9.5 to 10, sonicating for 5 minutes, and passing the resulting solutions through a 10 kDa filter (YM-10; Millipore, Bedford, Mass.) (31). Stock solutions (100 μM in 2 mM NaOH) were stored at −80° C. and diluted to 25 uM with PBS pH 7.2 to initiate fibrillogenesis. Identical methods were used to prepare the Aβ(1-42) (SEQ ID NO: 2) solutions utilized for TEM, AFM, MTT, Tunel and thioflavin T experiments. Turbidity was measured at 30° C. with orbital shaking in half area, nonbinding surface 96-well plates (Corning) on a TECAN GENios plate reader. The total volume was 50 uL and the concentration of FKBP was 1 uM. The results are representative of two independent experiments each performed in triplicate.

Aβ(1-42) [2] = target: T2, Aβ(1-42); test: Thioflavin T fluorescence assay of Aβ aggregation; assay type: biochemical; details: highest drug concentrations
Procedure: Fibrillization Procedure. Purified amyloid beta (1-42) (SEQ ID NO: 2) was purchased from AnaSpec and used without further purification. Fibrillization conditions are based on those previously described by Gordon and Meredith (Gordon, D. J. and Meredith, S. C. (2003) Biochemistry 42:475-485). Briefly, peptide was dissolved in PBS to a final concentration of 100 uM. To this solution, was added either FKBP12 (to a final concentration of 1 uM) or an equivalent volume of buffer alone (100 mM NaCl, 10 mM Tris-HCl pH 7.0). Additionally, either agent (dissolved in DMF) or DMF alone was added. These mixtures were placed at room temperature for at least 4 days without disruption. Thioflavin T assay. […] The mixture was vortexed briefly and the fluorescence emission maximum measured. For the dose dependence experiment, the emission wavelength was recorded at 490 nm. […] Turbidity was measured at 30° C. with orbital shaking in half area, nonbinding surface 96-well plates (Corning) on a TECAN GENios plate reader. […] Fluorescence was measured on a SpectraMax Gemini (Molecular Devices, Sunnyvale, Calif.), using an excitation wavelength of 446 nm (±5 nm) and an emission of 490 nm (±5 nm). The data was fit to sigmoidal curves using DeltaGraph (DeltaPoint, Inc) and the IC50 for each treatment recorded. […] A linear relationship between thioflavin T fluorescence and percent aggregation was used for simplicity.

Aβ(1-42) [3] = target: T2, Aβ(1-42); test: Transmission electron microscopy of Aβ fibrils; assay type: biochemical; details: for size or abundance of Aβ fibrils (TEM): 1 uM drug, 1 μM FKBP where present
Procedure: Transmission Electron Microscopy (TEM). Electron microscopy was performed essentially as previously described (Gordon, D. J. and Meredith, S. C. (2003) Biochemistry 42:475-485). Briefly, solutions subjected to the fibrillization conditions described above were applied to Formvar coated 400-mesh glow-discharged copper grids and contrasted with 1% uranyl acetate solution. Grids were analyzed at 80 kV and a magnification of 100,000×. Transmission Electron Microscopy. TEM was conducted using 300 mesh formvar-coated copper grids and 1% uranyl acetate stain on a JEOL TEM1230 and imaged with a Gatan 967 slow-scan CCD at 80 kV. Samples were incubated for 4 days at 22° C. in PBS pH 7.2 containing 25 uM Aβ(1-42) (SEQ ID NO: 2), 1 μM FKBP and 1 uM drug, where appropriate. The protocol used to prepare Aβ can influence fibrillogenesis and the reproducibility of the assays. Therefore, it can be useful to examine Aβ aggregation under a variety of conditions. In addition to the hydroxide method used above, stock solutions of Aβ were also prepared using a trifluoroacetic acid (TFA) protocol (Crystal, et al., J. Neurochem. 86, 1359-1368 (2003). TEM on samples originated from these stock solutions yielded similar results, although the typical size of the fibrils was considerably shorter.

Rat hippocampal neurons [4] = test: MTT cell viability assay, neurons exposed to pre-treated Aβ(1-42); assay type: cell-based; details: high molar concentrations of Aβ; SLF-Benz-CR at 100 nM
Procedure: Cell Viability Assay. Rat hippocampal (E19.5 and P0) neurons were prepared as previously described (Graef, et al., Nature 401, 703-708 (1999). Fresh Aβ(1-42) (100 uM) (SEQ ID NO: 2) was prepared under basic conditions and incubated with inhibitors for two days at 22° C. in PBS pH 7.2 and then diluted 1:4 with culture media and applied to neurons. MTT assays were conducted as per manufacturer's specifications after two additional days of incubation at 37° C. and 5% CO2. The inhibitor concentrations are the in vitro incubation values.

Rat hippocampal neurons [5] = test: Tunel staining / immunofluorescence microscopy of neurons exposed to Aβ; assay type: cell-based; details: for Tunel positive cells / Aβ toxicity: Aβ 25 uM, drug and FKBP 1 uM, incubated with Aβ prior to addition
Procedure: Immunofluorescence Microscopy. Rat hippocampal neurons (P0) were cultured 10 days on Matrigel-coated glass coverslips (Deckgläser, Germany) in 24-well plates (Corning) at 37° C. and 5% CO2. Aβ solutions were prepared and applied as above. The final concentration of Aβ was 25 uM and drug and FKBP were present at 1 uM. Following a two-day incubation, cells were prepared for microscopy as described (R. Kayed, et al., Science 300, 486-489 (2003).

Aβ(1-40) = target: T3, Aβ(1-40) (Homo sapiens, UniProt P05067); test: Surface plasmon resonance, binding to immobilized Aβ(1-40)
T3 construct: purchased AnaSpec, San Jose, Calif; host or cells: synthetic peptide
T3 sequence (P05067 672-711): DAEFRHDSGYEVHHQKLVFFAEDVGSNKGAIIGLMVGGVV
Procedure: as §1

Aβ(1-42) [6] = test: Atomic force microscopy of Aβ aggregates; assay type: biochemical; details: samples containing Aβ(1-42) and FKBP
Procedure: Atomic Force Microscopy. Samples for AFM were prepared as for TEM, above, applied to a clean silicon surface, washed twice with dH2O, dried, and imaged at a scan rate of 1 Hz using a silicon probe (TESP) on an AFM Nanoscope Dimension 3000 (Digital Instruments) in Tapping Mode (C. Goldsbury, et al, J. Mol. Biol. 285, 33-39 (1999). The dimensions of the globular aggregates in the samples treated with SLF-CR/FKBP were approximated using NIH Image.

T1 sequence (P62942 whole entry): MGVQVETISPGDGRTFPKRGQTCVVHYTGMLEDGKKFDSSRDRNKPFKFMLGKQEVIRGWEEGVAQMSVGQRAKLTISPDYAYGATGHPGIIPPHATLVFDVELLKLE

Question: Which “KD for FKBP, fold higher than SLF-CR” value (FKBP12) does the source give for `Nc1c(/N=N/c2ccc(-c3ccc(/N=N/c4cc(S(=O)(=O)O)c5ccccc5c4N)cc3)cc2)cc(S(=O)(=O)O)c2ccccc12` [CR, Congo red, reference compound] here?
Answer: Its value is 20 fold.

Question: What about the “effect on Aβ aggregation / turbidity” value (Aβ(1-42) [1]) of the same compound?
Answer: The value was “modest inhibitor of turbidity”.

Question: What about the “thioflavin T fluorescence” value (Aβ(1-42) [2]) of the same compound?
Answer: Its value is “failed to fully block thioflavin T fluorescence”.

Question: What about the “size or abundance of Aβ fibrils (TEM)” value (Aβ(1-42) [3]) of the same compound?
Answer: Its value is “ineffective”.

Question: What about the rescue of neurons (Rat hippocampal neurons [4]) of the same compound?
Answer: Its rescue of neurons is “unable to rescue”.

Question: What about the “Tunel positive cells / Aβ toxicity” value (Rat hippocampal neurons [5]) of the same compound?
Answer: Its value is “failed to substantially reduce the number of Tunel positive cells”.

Question: `CCC(C)(C)C(=O)C(=O)N1CCCCC1C(=O)OC(CCc1ccc(OC)c(OC)c1)c1cccc(OCC(=O)Nc2c(N=Nc3ccc(-c4ccc(N=Nc5cc(S(=O)(=O)O)c6ccccc6c5N)cc4)cc3)cc(S(=O)(=O)O)c3ccccc23)c1` (stereo not drawn) [SLF-CR] was tested. Which “affinity for Aβ” value (Aβ(1-40); immobilized Aβ(1-40), SPR) did it give?
Answer: The value was “not significantly different from that of CR”.

Question: What about the “SPR response on immobilized amyloid” value (Aβ(1-40); ternary complex test, compound alone or pre-incubated with FKBP) of the same compound?
Answer: Its value is ~140 RUs.

Question: And the “binding to immobilized FKBP” value (FKBP12)?
Answer: The value was “comparable affinity”.

Question: What about the “recruitment of FKBP to Aβ by electron microscopy” value (Aβ(1-42) [3]) of the same compound?
Answer: The value was “confirmed”.

Question: And the “size or abundance of Aβ fibrils (TEM)” value (Aβ(1-42) [3])?
Answer: The value was “ineffective”.

Question: What about the “fibril formation (AFM)” value (Aβ(1-42) [6]) of the same compound?
Answer: The value was “failed to form fibrils”.

Question: And the “Tunel positive cells / Aβ toxicity” value (Rat hippocampal neurons [5])?
Answer: The value was “failed to substantially reduce the number of Tunel positive cells”.

Question: For `CCC(C)(C)C(=O)C(=O)N1CCCC[C@H]1C(=O)O[C@H](CCc1ccc(OC)c(OC)c1)c1cccc(OCC(=O)O)c1` [SLF], which “binding to immobilized FKBP” value (FKBP12) is on record?
Answer: Its value is “comparable affinity”.

Question: How did the “remaining cells positive for Tunel” value (Rat hippocampal neurons [5]; after two days) turn out when `CC[C@@]1(O)C(=O)OCc2c1cc1n(c2=O)Cc2cc3ccccc3nc2-1` [camptothecin, reference compound] was run?
Answer: The value was 36%.

Question: What does the source list for “FKBP: bacterially-expressed recombinant FKBP12, FK506-binding protein, prolyl isomerase”?
Answer: effect on Aβ aggregation / turbidity (Aβ(1-42) [1]): did not interfere with Aβ aggregation; size or abundance of Aβ fibrils (TEM) (Aβ(1-42) [3]): does not influence the formation or architecture of Aβ fibrils; Tunel positive cells / Aβ toxicity (Rat hippocampal neurons [5]): failed to substantially reduce the number of Tunel positive cells
